Values after ≈ are worked out from the molar mass of the structure shown. Marks after values point to notes of the source that are not given here. Square brackets hold non-standard residues; d marks the D form. Peptide text beside a SMILES is read from it. Ac6c = NC1(C(=O)O)CCCCC1
Tests used:
[1] = tested on: E. coli 70S ribosome; assay: Competitive FP binding screening assay with Cf-ARV-1502 (relative FP); parameters: species or system E. coli BW25113; conditions: for Ribosome Binding (%): competitive ribosome binding against Cf-ARV-1502 (relative FP; values match 1.2 µmol/L peptide), low value = strong competition; for Inhibition of Cf-ARV-1502 binding to the 70S ribosome (in words): Figure 3: peptide concentration 1.2 µmol/L
Protocol: E. coli 70S ribosomes were prepared using a previously described protocol that was slightly modified. Briefly, E. coli BW25113 was cultivated in Luria-Bertani (LB) medium and cells were harvested after reaching an optical density of ~4 at 600 nm by centrifugation (5000× g, 15 min, 4 °C, Rotor JLA 8.100, Avanti J-20 XP, Beckmann Coulter, Krefeld, Germany). The cell pellets were frozen and stored at −80 °C. Cells were resuspended in ribosome buffer (2 mL/g cells; 20 mmol/L HEPES-KOH, 6 mmol/L MgCl2, 30 mmol/L NH4Cl, 4 mmol/L 2-mercaptoethanol, pH 7.6). Lysozyme (0.25 g/L cell suspension) was added, and the mixture was incubated on ice for 30 min. Cells were disrupted using the bead mill homogenizer FastPrep-24™ 5G (40 s, 4 m/s, 6 cycles, MP Biomedicals Germany GmbH, Eschwege, Germany) and zirconia/silica beads (0.1 mm diameter). The lysate was centrifuged (1500× g, 5 min, 4 °C, Rotor S4180, Allegra 21R, Beckmann Coulter) and the supernatant was incubated with DNase (5 U/mL) on ice for 60 min. The cell debris was removed by two centrifugation steps (16,000× g, 30 min, 4 °C followed by 32,000× g, 60 min, 4 °C, Rotor JA 30.50 Ti, Avanti J-30I, Beckmann Coulter). The ribosome was pelleted by ultracentrifugation (165,000× g, 17 h, 4 °C, Rotor 70 Ti, Optima LE-80K, Beckmann Coulter), resuspended in ribosome buffer (0.1 mL/g pellet), and stored at −80 °C. The ribosome concentration was determined by recording the absorbance of RNA at 260 nm (NanoPhotometer NP80, Implen GmbH, München, Germany) assuming that 1 AU corresponds to a ribosome concentration of 28 nmol/L. The molecular weight of the E. coli 70S ribosome was assumed to be 2.3 MDa.
E. coli 70S ribosomes and Cf-ARV-1502 were incubated with four different concentrations of unlabeled peptides chosen based on the IC50 curves of reference peptide ARV-1502. Each peptide was diluted in ribosome buffer to obtain a concentration of 4.8 µmol/L and transferred to a 384-well-plate. Peptides were then twofold serially diluted in four steps from 4.8 to 0.6 µmol/L (20 µL). The ribosome extract was diluted in ribosome buffer to reach a concentration of 2 µmol/L and 10 µL were added to each well to obtain a final ribosome concentration of 0.5 µmol/L. Plates were centrifuged (2 min, 500× g, Rotor S2096, Allegra^TM 21R, Beckmann Coulter) and incubated at 28 °C for 90 min. Cf-labeled ARV-1502 was added (10 µL; final concentration of 20 nmol/L) and the plates were again centrifuged and incubated (28 °C, 90 min). After incubation, fluorescence polarization was recorded on a […]^TM microplate reader (λex = 485 nm, λem = 535 nm).
On each plate 12 minimum (30 µL ribosome buffer and 10 µL Cf-ARV-1502) and 12 maximum (20 µL ribosome buffer, 10 µL ribosome solution and 10 µL Cf-ARV-1502) control samples were added. Fluorescence polarization of screening samples was normalized to the fluorescence polarization of these control samples. All screening samples were measured in triplicates and the whole experiment was repeated once on another day.

[2] = tested on: E. coli BW25113; assay: MIC, liquid broth micro dilution, wild type; type: cell-based, Escherichia coli
Protocol: (§1) MIC values were determined using a liquid broth micro dilution assay in sterile 96-well plates (polystyrene F-bottom, Greiner Bio-One GmbH) and a total volume of 100 μL per well. Aqueous peptide solutions (10 g/L) were serially twofold diluted in 25% Mueller-Hinton broth 2 (25% MBH2) or 33% tryptic soy broth (33% TSB) starting at a peptide concentration of 128 mg/L (50 μL/well). Overnight cultures of bacteria grown in 25% MHB2 (or 33% TSB) were diluted 30-fold in 25% MHB2 (or 33% TSB). After an incubation period of 4 h (37 °C, 200 rpm), cells were diluted to 1.5 × 10^7 cfu/mL, based on a McFarland test, and 50 μL were added to each well (final concentration of 7.5 × 10^6 […]). The plates were incubated (37 °C, 20 h) and the optical density was recorded at 595 nm using a microplate reader ([…]^TM, Beckmann Coulter). The MIC was defined as the lowest peptide concentration preventing visible bacterial growth.

[3] = tested on: E. coli BW25113 ∆sbmA ∆mdtM; type: cell-based, Escherichia coli; conditions: for Effect of the additional mdtM knockout on antibacterial activity: ∆sbmA ∆mdtM compared with ∆sbmA; for Minimal Inhibitory Concentration, 25% MHB2, ∆sbmA ∆mdtM: 25% MHB2, 37 °C; for Minimal Inhibitory Concentration, 25% MHB2, ∆sbmA ∆mdtM / Minimal Inhibitory Concentration, 33% TSB, ∆sbmA ∆mdtM: 20 h, at least duplicates on two days, * once on two days, ** duplicate on one day; for Minimal Inhibitory Concentration, 33% TSB, ∆sbmA ∆mdtM: 37 °C
Protocol: as §1

[4] = tested on: E. coli 70S ribosome; assay: Cell-free GFP expression assay (in vitro translation); type: biochemical; conditions: for In Vitro Translation (%): GFP expression remaining relative to control, concentration not given (higher concentration 50 µmol/L); for Reduction of GFP expression, 50 µmol/L peptide: cell-free expression, peptide-to-ribosome ratio of 25, GFP fluorescence, 37 °C
Source text: Possible effects of ARV-1502 and its substituted analogs on the in vitro translation of the green fluorescent protein (GFP) were probed using the NEB PureExpress Delta RF123 Kit (New England Biolabs, Ipswich, MA, USA). The sfGFP DNA template was amplified from pY71sfGFP plasmid by PCR introducing an UAA stop codon. Release factor 1 (RF1) was 50fold diluted in Pure System Buffer (PSB) containing magnesium acetate (1 mol/L), monopotassium phosphate (0.5 mol/L, pH 7.3), potassium glutamate (1 mol/L), NH4Cl (1 mol/L), calcium chloride (0.5 mol/L), spermidine (1 mol/L), putrescine (0.1 mol/L), and DTT (0.1 mol/L). Each reaction used 35 ng of sfGFP template. Peptides were added at a final concentration of 5 µmol/L and 50 µmol/L. The reaction was started by adding Kit solutions A (2 µL) and B (1.5 µL), diluted RF1 (0.5 µL), sfGFP template (0.25 µL or water as negative control), PSB (0.25 µL), and peptide (0.5 µL or water), mixed, transferred into a black 384-well plate (flat bottom, Greiner Bio-One GmbH), and incubated (37 °C, 2 h). The fluorescence was recorded every 10 min (λexc = 485 nm, λem = 535 nm) in a microplate reader (Gemini EM, Molecular Devices LLC, San Jose, CA, USA).

[5] = tested on: E. coli BW25113 ∆sbmA; type: cell-based, Escherichia coli; conditions: 20 h, at least duplicates on two days, * once on two days, ** duplicate on one day; for Minimal Inhibitory Concentration, 25% MHB2, ∆sbmA: 25% MHB2, 37 °C; for Minimal Inhibitory Concentration, 33% TSB, ∆sbmA: 37 °C
Protocol: as §1

[6] = 33% TSB, 37 °C, 20 h, at least duplicates on two days, * once on two days, ** duplicate on one day

| SMILES | Ribosome Binding (%) [1] [%] | MIC (µg/mL), Table 3 ([2]; BW25113, 4 h) [µg/mL] | Minimal Inhibitory Concentration, 25% MHB2, wt ([2]; BW25113, 20 h) [µg/mL] | Minimal Inhibitory Concentration, 33% TSB, wt ([2]; BW25113, 20 h) | Effect of the additional mdtM knockout on antibacterial activity [3] | In Vitro Translation (%) [4] [%] | Reduction of GFP expression, 50 µmol/L peptide [4] | Inhibition of Cf-ARV-1502 binding to the 70S ribosome (in words) [1] | Minimal Inhibitory Concentration, 25% MHB2, wt ([2]; 25% MHB2, 37 °C, 20 h, at least duplicates on two days, * once on two days, ** duplicate on one day) [µg/mL] | Minimal Inhibitory Concentration, 33% TSB, wt [2, 6] [µg/mL] | Minimal Inhibitory Concentration, 25% MHB2, ∆sbmA ∆mdtM [3] [µg/mL] | Minimal Inhibitory Concentration, 33% TSB, ∆sbmA ∆mdtM [3] [µg/mL] | Minimal Inhibitory Concentration, 25% MHB2, ∆sbmA [5] [µg/mL] | Minimal Inhibitory Concentration, 33% TSB, ∆sbmA [5] [µg/mL] | MIC / activity against E. coli ([2]; BW25113, 4 h) [µg/mL] |
| --- | --- | --- | --- | --- | --- | --- | --- | --- | --- | --- | --- | --- | --- | --- | --- |
| CC(C)C[C@H](NC(=O)[C@H](Cc1ccc(O)cc1)NC(=O)[C@@H]1CCCN1C(=O)[C@H](CCCNC(=N)N)NC(=O)[C@@H]1CCCN1C(=O)[C@H](CO)NC(=O)[C@H](CCCCN)NC(=O)[C@@H]1CCCN1C(=O)[C@H](CCCNC(=N)N)NC(=O)C1(N)CCCCC1)C(=O)N1CCC[C@H]1C(=O)N[C@@H](CCCNC(=N)N)C(=O)N1CCC[C@H]1C(=O)N[C@@H](CCCNC(=N)N)C(=O)N1CCC[C@H]1C(=O)N1CCC[C@H]1C(=O)N[C@@H](CCCNC(=N)N)C(=O)N1CCC[C@H]1C(=O)N[C@H](C(=O)N[C@@H](CCCNC(=N)N)C(N)=O)C(C)C [Peptide 29] (H-[Ac6c]RPKSPRPYLPRPRPPRPVR-NH2; N-terminus and C-terminus assumed) | 78.5 ± 3.3 | 16 (≈ 6.54 µM) | 16 | 32 µg/mL | no effect | 74.3 ± 10.1 | ~ 25% |  |  |  |  |  |  |  |  |
| CC(C)[C@H](NC(=O)[C@@H]1CCCN1C(=O)[C@H](CCCNC(=N)N)NC(=O)[C@@H]1CCCN1C(=O)[C@@H]1CCCN1C(=O)[C@H](CCCNC(=N)N)NC(=O)[C@@H]1CCCN1C(=O)[C@H](CCCNC(=N)N)NC(=O)[C@@H]1CCCN1C(=O)[C@H](Cc1ccccc1)NC(=O)[C@H](Cc1ccc(O)cc1)NC(=O)[C@@H]1CCCN1C(=O)[C@H](CCCNC(=N)N)NC(=O)[C@@H]1CCCN1C(=O)[C@H](Cc1ccccc1)NC(=O)[C@H](Cc1ccccc1)NC(=O)[C@@H]1CCCN1C(=O)[C@H](CCCNC(=N)N)NC(=O)C1(N)CCCCC1)C(=O)N[C@@H](CCCNC(=N)N)C(N)=O [Peptide 96] (H-[Ac6c]RPFFPRPYFPRPRPPRPVR-NH2; N-terminus and C-terminus assumed) | 62.9 ± 4.8 | 16 (≈ 6.25 µM) | 16 | 32 * µg/mL | no effect | 77.2 ± 1.9 | ~ 25% |  |  |  |  |  |  |  |  |
| CC(C)C[C@H](NC(=O)[C@H](Cc1ccc(O)cc1)NC(=O)[C@@H]1CCCN1C(=O)[C@H](CCCNC(=N)N)NC(=O)[C@@H]1CCCN1C(=O)[C@H](Cc1ccccc1)NC(=O)[C@H](Cc1ccccc1)NC(=O)[C@@H]1CCCN1C(=O)[C@H](CCCNC(=N)N)NC(=O)C1(N)CCCCC1)C(=O)N[C@@H](CO)C(=O)N[C@@H](CCCNC(=N)N)C(=O)N1CCC[C@H]1C(=O)N[C@@H](CCCNC(=N)N)C(=O)N1CCC[C@H]1C(=O)N1CCC[C@H]1C(=O)N[C@@H](CCCNC(=N)N)C(=O)N1CCC[C@H]1C(=O)N[C@H](C(=O)N[C@@H](CCCNC(=N)N)C(N)=O)C(C)C [Peptide 99] (H-[Ac6c]RPFFPRPYLSRPRPPRPVR-NH2) |  |  |  |  | no effect |  |  | did not inhibit the binding of Cf-ARV-1502 | 16 to 32 | 64 | 32 | 128 | 32 | 128 |  |
| CC(C)[C@H](NC(=O)[C@@H]1CCCN1C(=O)[C@H](CCCNC(=N)N)NC(=O)[C@@H]1CCCN1C(=O)[C@@H]1CCCN1C(=O)[C@H](CCCNC(=N)N)NC(=O)[C@@H]1CCCN1C(=O)[C@H](CCCNC(=N)N)NC(=O)[C@@H]1CCCN1C(=O)[C@H](Cc1ccccc1)NC(=O)[C@H](CCCCN)NC(=O)[C@@H]1CCCN1C(=O)[C@H](CCCNC(=N)N)NC(=O)[C@@H]1CCCN1C(=O)[C@H](CCCCN)NC(=O)[C@H](CC(=O)O)NC(=O)[C@@H]1CCCN1C(=O)[C@H](CCCNC(=N)N)NC(=O)C1(N)CCCCC1)C(=O)N[C@@H](CCCNC(=N)N)C(N)=O [Peptide 123] (H-[Ac6c]RPDKPRPKFPRPRPPRPVR-NH2) |  |  | 32 |  | weakened the activity |  |  | did not inhibit the binding of Cf-ARV-1502 |  | 128 | 128 | >128 | 64 | >128 | 16 to 32 |

Source: publication PMC8950706, “Influence of Substitutions in the Binding Motif of Proline-Rich Antimicrobial Peptide ARV-1502 on 70S Ribosome Binding and Antimicrobial Activity” (International Journal of Molecular Sciences, 2022)
